Laboratory results as given in patent US7815945B2, “Medicament for the prevention and treatment of influenza” (priority 2005, dated 2010).

System: A549 cells
Assay: Apoptotic caspase activation (Western blot for PARP cleavage)
Conditions: 48 h, extract 25 μg/ml and 50 μg/ml, staurosporine as positive control, FIG. 3

CN[C@@H]1C[C@H]2O[C@@](C)([C@@H]1OC)n1c3ccccc3c3c4c(c5c6ccccc6n2c5c31)C(=O)NC4 [staurosporine]
cleavage of the caspase substrate PARP (caspase activity): efficient cleavage of the caspase substrate
